Source: patent US20250066320A1, “Active Ingredients with Sialagogue and Tingling/Fizzy Effect, and Preparations Containing Same” (Symrise AG, priority 2021, published 2025)

Assay: Sensory tasting of the active ingredients (mouth-watering and/or tingling effect) by a trained expert panel
Type: in vivo, human
Details: for Sensory Rating: intensity of mouth-watering and/or tingling/fizzing effect (figure in brackets): 50 ppm
Method: The sensory tasting of the active ingredients according to the invention was carried out as follows: • (1) The active ingredients were each prepared in a 5% sugar solution or in an unflavored standard fondant mass. Fondant is the name for a soft, pasty sugar mass that is used to make various confectionery products. Fondant is made from water and sucrose as well as glucose syrup, invert sugar cream and/or sugar alcohols (e.g., sorbitol or mannitol). The mixture is boiled and then processed into a soft paste by kneading it vigorously and cooling it quickly. • (2) The concentration of the active ingredients was 25 or 50 ppm. • (3) The test samples were tested under practical conditions by a panel of experts with sensory training. For tasting, 3 to 7 tasters each rinsed their mouths with approx. 5 ml of the sugar solution and spat the solution out again. The mouth-watering and/or tingling effect was assessed on a scale of 1 (very weak) to 10 (very strong) and the profile evaluated.

[1] = 25 ppm in 5% sugar solution or unflavored fondant mass, 3 to 7 tasters
[2] = 50 ppm in 5% sugar solution or unflavored fondant mass, 3 to 7 tasters
[3] = scale of 1 (very weak) to 10 (very strong)

Row | SMILES | Sensory Rating (profile in words) [1] | Sensory Rating (profile in words) [2] | Sensory Rating: intensity of mouth-watering and/or tingling/fizzing effect (figure in brackets) [3] | also measured
1 | CCCOc1ccc(C(=O)N2CCN(C/C=C/c3ccccc3)CC2)cc1OCCC [Compound 1, [4-[(E)-cinnamyl]pi-perazin-1-yl]-(3,4-dipropoxy-phenyl)methanone] | astringent mouth-watering, Spilanthes effect |  |  | 
2 | COc1ccc(C(=O)N2CCN(C/C=C/c3ccccc3)CC2)cc1OC [Compound 3, [4-[(E)-cinnamyl]piperazin-1-yl]-(3,4-dimethoxy-phenyl)methanone] |  | tingling/ fizzing |  | 
3 | COc1cc(C(=O)N2CCN(C/C=C/c3ccccc3)CC2)ccc1O [Compound 4, [4-[(E)-cinnamyl]piperazin-1-yl]-(4-hydroxy-3-methoxy-phenyl)methanone] |  | balsamic |  | 
4 | COc1cc(C(=O)N2CCN(C/C=C/c3ccccc3)CC2)cc(OC)c1OC [Compound 5, [4-[(E)-cinnamyl]piperazin-1-yl]-(3,4,5-trimethoxy-phenyl)methanone] | chocolaty, dusty, after cress |  |  | 
5 | CCCOc1ccc(C(=O)N2CCN(C/C=C/c3ccccc3)CC2)cc1OCCC [Compound 6, [4-[(E)-cinnamyl]piperazin-1-yl]-(3,4-dipropoxy-phenyl)methanone] | bitter, light astringent |  |  | 
6 | CCOc1ccc(C(=O)N2CCN(CCCc3ccccc3)CC2)cc1OCC [Compound 7, (3,4-Diethoxy-phenyl)-[4-(3-phenyl-propyl)piperazin-1-yl]methanone] | tingling/ fizzing, mouth-watering, slightly cooling |  |  | 
7 | CCOc1ccc(C(=O)N2CCN(Cc3ccccc3)CC2)cc1OCC [Compound 8, (4-benzylpiperazin-1-yl)-(3,4-diethoxy-phenyl)methanone] | slightly tingling/ fizzing, slightly mouth-watering, slightly cooling |  |  | 
8 | COc1ccc(C(=O)N2CCN(C/C=C/c3ccccc3)CC2)cc1O [Compound 9, [4-[(E)-cinnamyl]piperazin-1-yl]-(3-hydroxy-4-methoxy-phenyl)methanone] | sweet, after melon |  |  | 
9 | CC(C)Oc1ccc(C(=O)N2CCN(C/C=C/c3ccccc3)CC2)cc1OC(C)C [Compound 10, [4-[(E)-cinnamyl]piperazin-1-yl]-(3,4-diisopropoxy-phenyl)methanone] | astringent, bitter |  |  | 
10 | CCOc1ccc(C(=O)N2CCN(CCCCc3ccccc3)CC2)cc1OCC [Compound 11, (3,4-Diethoxy-phenyl)-[4-(4-phenyl-butyl)piperazin-1-yl]methanone] | tingling/ fizzing, like melon, astringent, mouth-watering |  |  | 
11 | CCOc1ccc(C(=O)N2CCN(CCc3ccncc3)CC2)cc1OCC [Compound 12, (3,4-Diethoxy-phenyl)-[4-[2-(4-pyridyl)ethyl]piperazin-1-yl] methanone] | tingling/ fizzing, mouth-watering, ethanolic |  |  | 
12 | CCOc1ccc(C(=O)N2CCN(CCOc3ccccc3)CC2)cc1OCC [Compound 13, (3,4-Diethoxy-phenyl)-[4-(2-phenoxyethyl)piperazin-1-yl] methanone] | strong tingling/ fizzing, mouth-watering, |  |  | 
13 | CCOc1ccc(C(=O)N2CCN(Cc3ccncc3)CC2)cc1OCC [Compound 14, (3,4-Diethoxy-phenyl)-[4-(4-pyridyl-methyl)piperazin-1-yl]methanone] | slightly tingling/ fizzing, mouth-watering, burning, |  |  | 
14 | CCOc1ccc(C(=O)N2CCN(CCc3ccccc3)CC2)cc1OCC [Compound 15, (3,4-Diethoxy-phenyl)-[4-(2-phenyl-ethyl)piperazin-1-yl]methanone] | Acid effect, tingling/ fizzing, mouth-watering, slightly salty |  |  | 
15 | O=C(c1ccccc1)N1CCN(CCCCc2ccccc2)CC1 [Compound 16, Phenyl-[4-(4-phenylbutyl)piperazin-1-yl]methanone] | slightly tingling/ fizzing | metallic taste, mouth-watering and tingling/ fizzing effect | 2-3 | 
16 | O=C(c1ccccc1)N1CCN(C/C=C/c2ccccc2)CC1 [Compound 17, [4-[(E)-cinnamyl]piperazin-1-yl]-phenyl-methanone] |  | slightly tingling/ fizzing, slightly honey-like | 3 | 
17 | O=C(c1ccccc1)N1CCN(CCc2ccccc2)CC1 [Compound 18, Phenyl-[4-(2-phenyl-ethyl)piperazin-1-yl]methanone] | no effect | slightly tingling/ fizzing and mouth-watering | 2-3 | 
18 | O=C(c1ccccc1)N1CCN(CCC2CCCCC2)CC1 [Compound 19, [4-(2-cyclo-hexylethyl)piperazin-1-yl]-phenyl-methanone] | fruity, slightly mouth-watering | of mushrooms, fruity, slightly metallic taste, slightly tingling/ fizzing | 1-2 | 
19 | O=C(c1ccccc1)N1CCC(CCCc2ccccc2)CC1 [Compound 20, Phenyl-[4-(3-phenyl-propyl)-1-piperidyl]-methanone] |  | slightly tingling/ fizzing (2), mouth-watering, Anthranilate- like, fruity note | slightly tingling/ fizzing (2), mouth-watering, Anthranilate- like, fruity note | 
20 | O=C(c1ccccc1)N1CCN(CCCc2ccccc2)CC1 [Compound 21, Phenyl-[4-(3-phenylpropyl)piperazin-1-yl] methanone] | sweet, fruity, slightly tingling/ fizzing | slightly tingling/ fizzing and mouth-watering | 2-3 | 
21 | O=C(c1ccccc1)N1CCCN(CCc2ccccc2)CC1 [Compound 22, Phenyl-[4-(2-phenyl-ethyl)-1,4-diazepan-1-yl] methanone] | floral, linalool flavor | very light metallic taste, remarkably mouth-watering and tingling/ fizzing | 4-5 | 
22 | O=C(c1ccccc1)N1CCN(Cc2ccccc2)CC1 [Compound 23, (4-benzylpiperazin-1-yl)-phenyl-methanone] |  | Slightly floral taste, slightly metallic, not a pleasant taste, very slightly mouth-watering and tingling/fizzing | 3 | 
23 | CCOc1ccc(C(=O)N2CCN(CCC3CCCCC3)CC2)cc1OCC [Compound 24, [4-(2-cyclo-hexylethyl)piperazin-1-yl]-(3,4-diethoxy-phenyl)methanone] |  | fruity taste (blueberries) |  | 
24 | CCOc1ccc(C(=O)N2CCC(CCCc3ccccc3)CC2)cc1OCC [Compound 25, (3,4-Diethoxy-phenyl)-[4-(3-phenyl-propyl)-1-piperidyl]-methanone] |  | Very slightly tingling/fizzing (2-3), sharp, astringent | Very slightly tingling/fizzing (2-3), sharp, astringent | 
25 | CCOc1ccc(C(=O)N2CCCN(CCc3ccccc3)CC2)cc1OCC [Compound 26, (3,4-Diethoxy-phenyl)-[4-(2-phenyl-ethyl)-1,4-diazepan-1-yl]methanone] |  | Very slightly tingling/fizzing (1-2), and mouth-watering (weak) | Very slightly tingling/fizzing (1-2), and mouth-watering (weak) | 
26 | COc1ccc(C(=O)N2CCN(CCCCc3ccccc3)CC2)cc1OC [Compound 27, (3,4-Dimethoxy-phenyl)-[4-(4-phenyl-butyl)piperazin-1-yl]methanone] |  | slightly tingling/ fizzing (4-5), and mouth-watering, metallic after- taste, weakly burning | slightly tingling/ fizzing (4-5), and mouth-watering, metallic after- taste, weakly burning | 
27 | COc1ccc(C(=O)N2CCN(CCc3ccccc3)CC2)cc1OC [Compound 28, (3,4-Dimethoxy-phenyl)-[4-(2-phenyl-ethyl)piperazin-1-yl]methanone] |  |  |  | Sensory Rating (profile in words) (dosage 25 and 50 ppm, cell not split by dosage): slightly tingling/ fizzing (3) slightly metallic; Sensory Rating: intensity of tingling/fizzing effect (figure in brackets) (dosage 25 and 50 ppm, cell not split by dosage, scale of 1 (very weak) to 10 (very strong)): slightly tingling/ fizzing (3) slightly metallic
28 | COc1ccc(C(=O)N2CCN(CCC3CCCCC3)CC2)cc1OC [Compound 29, [4-(2-cyclo-hexylethyl)piperazin-1-yl]-(3,4-dimethoxy-phenyl)methanone] |  | slightly mouth-watering, slightly tingling/ fizzing (1-2), green note, light onion flavor | slightly mouth-watering, slightly tingling/ fizzing (1-2), green note, light onion flavor | 
29 | COc1ccc(C(=O)N2CCC(CCCc3ccccc3)CC2)cc1OC [Compound 30, (3,4-Dimethoxy-phenyl)-[4-(3-phenyl-propyl)-1-piperidyl]methanone] |  | very slight tingling/fizzing and mouth-watering, dry in the mouth |  | 
